Reference: paper PMC2879362, “Design of Group IIA Secreted/Synovial Phospholipase A2 Inhibitors: An Oxadiazolone Derivative Suppresses Chondrocyte Prostaglandin E2 Secretion” (PLoS ONE, 2010)

Columns and labels:
[1] = tested on: COX-1/COX-2 protein ratio; assay: COX-1/COX-2 protein ratio by scanning densitometry of western blots; assay type: cell-based, rabbit; settings: C8 0.31-1.24 µM in DMEM, IL-1β 20 h
Description: As expected, COX-1 protein was detectable but COX-2 and iNOS proteins were undetectable in untreated control conditions (Fig. 6A). […] Consequently, the protein ratio of COX-1 to COX-2 was not modified by C8 (Fig. 6B). […] Results from one representative experiment in five are shown. (B) Intensities of the COX-1 and COX-2 immunoreactive bands evaluated by semi-quantitative scanning densitometry. Data represent the COX-1/COX-2 protein ratio and are expressed as relative arbitrary units, where the IL-1β-treated group represents 1. Values are means ± SEM (n = 5 independent determinations). No significant differences were found between the groups. […] Cell lysates were centrifuged for 15 min at 14000 rpm at 4°C and supernatants were collected. Protein concentrations were determined by the Bradford method by use of the Protein Assay dye reagent (Bio-Rad). Protein extracts (20 µg) were size-separated by SDS-PAGE in a 10% (w/v) polyacrylamide gel and electroblotted to a nitrocellulose membrane. Equal protein loading and transfer was confirmed by staining the membrane with Ponceau Red [0.2% (w/v) in H2O:acetic acid 99∶1]. […] Immunocomplexes were detected by an enhanced chemiluminescence kit (Amersham Bioscience). […] Semi-quantitative scanning densitometry involved use of the ImageJ program (NIH, USA).

[2] = biological target: T1, human GIIAPLA2 (hGIIAPLA2) (Homo sapiens, UniProt P14555); assay: In vitro fluorimetric PLA2 assay (β-py-C10-PG substrate); assay type: biochemical; settings: 2 µM β-py-C10-PG, 1 ng/mL hGIIAPLA2
T1 construct: hGIIAPLA2 was prepared as previously described [33]; made in house
T1 sequence (P14555 21-144): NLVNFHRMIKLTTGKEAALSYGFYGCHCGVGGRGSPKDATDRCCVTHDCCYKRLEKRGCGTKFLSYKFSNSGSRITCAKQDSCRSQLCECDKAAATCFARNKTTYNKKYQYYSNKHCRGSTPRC
Protocol: (§1) The compounds C1-C8 were submitted to fluorimetric assay to determine their inhibitory potencies and selectivity towards human GIIAPLA2 (hGIIAPLA2) versus porcine group IB PLA2 (pGIBPLA2) (Table 2). GIBPLA2 is an enzyme of the same family as GIIAPLA2 (sPLA2) but is mainly involved in digestion of dietary phospholipids and is secreted by the pancreas. Lipophilicity parameters, log P, of these products are calculated by use of Rekker's fragmental data (Table 2). The molecules C1-C8 are specific inhibitors of hGIIAPLA2 because none inhibited pGIBPLA2 at the highest concentration tested (100 µM). Such selectivity implies that C1-C8 should not interfere with the digestion process.
(§2) Fatty-acid free BSA and pancreatic PLA2 were from Sigma. hGIIAPLA2 was prepared as previously described. The fluorescent substrate for PLA2 assay, 1-hexadecanoyl-2-(10-pyrenedecanoyl)-sn-glycero-3-phosphoglycerol, ammonium salt (β-py-C10-PG) was from Molecular Probes (Eugene). PLA2 activity was evaluated as previously described with β-py-C10-PG used as a substrate (2 µM final concentration). In a total volume of 1 mL, the standard reaction medium contained 50 mM Tris-HCl (pH 7.5), 500 mM NaCl, 1 mM EGTA, 2 µM β-py-C10-PG, 0.1% fatty-acid free BSA and 6 ng/mL pancreatic PLA2 or 1 ng/mL hGIIAPLA2. The fluorescence (λex = 342 nm and λem = 398 nm) of the enzymatic reaction medium was recorded for 3 min with use of a spectrofluorimeter LS 50 (Perkin-Elmer) equipped with a Xenon lamp. The reaction was initiated by the addition of CaCl2 (10 mM, final concentration). The increase in fluorescence was continuously recorded for 1 min, and PLA2 activity was calculated as previously described. When used, the inhibitor was added to the reaction medium after introduction of BSA. The activity is expressed in micromoles of fluorescent β-py-C10-PG hydrolyzed per min. The standard error of the mean of three independent experiments was less than 10%, which allows for the determination of the IC50 values (concentration of inhibitors producing 50% inhibition) of each compound.

[3] = biological target: T2, porcine group IB PLA2 (pGIBPLA2) (Sus scrofa, UniProt P00592); assay: as above; assay type: biochemical; settings: 2 µM β-py-C10-PG, 6 ng/mL pancreatic PLA2
T2 construct: purchased Sigma
Protocol: as §1, §2

COX-1 = assay: Western blot of COX-1 protein level in IL-1β-treated chondrocytes; assay type: cell-based, rabbit; settings: C8 0.31-1.24 µM in DMEM, IL-1β 20 h
Protocol: As expected, COX-1 protein was detectable but COX-2 and iNOS proteins were undetectable in untreated control conditions (Fig. 6A). […] Consequently, the protein ratio of COX-1 to COX-2 was not modified by C8 (Fig. 6B). […] Cell lysates were centrifuged for 15 min at 14000 rpm at 4°C and supernatants were collected. Protein concentrations were determined by the Bradford method by use of the Protein Assay dye reagent (Bio-Rad). Protein extracts (20 µg) were size-separated by SDS-PAGE in a 10% (w/v) polyacrylamide gel and electroblotted to a nitrocellulose membrane. Equal protein loading and transfer was confirmed by staining the membrane with Ponceau Red [0.2% (w/v) in H2O:acetic acid 99∶1]. The membrane was sequentially incubated with antibodies against COX-1 (1∶200, Santa Cruz Biotechnology), COX-2 (1∶500, Santa Cruz Biotechnology), iNOS (1∶400, BD Biosciences) or α-tubulin (1∶100, Santa Cruz Biotechnology) and then with peroxidase-conjugated donkey anti-goat IgG (1∶20000) or donkey anti-rabbit IgG (1∶200, both Santa Cruz Biotechnology). Immunocomplexes were detected by an enhanced chemiluminescence kit (Amersham Bioscience). The membrane was stripped by incubation in 0.2 M NaOH between successive immunodetections. Semi-quantitative scanning densitometry involved use of the ImageJ program (NIH, USA).

T2 sequence (P00592 23-146): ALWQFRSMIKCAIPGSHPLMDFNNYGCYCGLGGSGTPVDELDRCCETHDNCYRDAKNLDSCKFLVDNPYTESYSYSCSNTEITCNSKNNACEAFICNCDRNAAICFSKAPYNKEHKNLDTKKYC

SMILES: O=c1[nH]c(Cc2ccc(OCCCCCOc3cc4ccccc4c4ccccc34)cc2)no1 [C8]
- effect on protein ratio of COX-1 to COX-2 [1]: not modified
- IC50 [2]: 620 ± 150 nM
- IC50 [3]: > 100 µM
- effect on COX-1 protein level (COX-1): did not alter
